According to article PMC9865589, “Synthesis and Evaluation of Novel S-alkyl Phthalimide- and S-benzyl-oxadiazole-quinoline Hybrids as Inhibitors of Monoamine Oxidase and Acetylcholinesterase” (Pharmaceuticals, 2022):
“And” between values parts separate entries of the source, which are not always exact repeats. Equal entries are not always repeated.

Legend:
Assay type in all cases: biochemical
AChE = AChE (Homo sapiens, UniProt P22303); assay: biochemical; details: for IC50: average ± SEM, triplicate
Chain of AChE (P22303 32-614): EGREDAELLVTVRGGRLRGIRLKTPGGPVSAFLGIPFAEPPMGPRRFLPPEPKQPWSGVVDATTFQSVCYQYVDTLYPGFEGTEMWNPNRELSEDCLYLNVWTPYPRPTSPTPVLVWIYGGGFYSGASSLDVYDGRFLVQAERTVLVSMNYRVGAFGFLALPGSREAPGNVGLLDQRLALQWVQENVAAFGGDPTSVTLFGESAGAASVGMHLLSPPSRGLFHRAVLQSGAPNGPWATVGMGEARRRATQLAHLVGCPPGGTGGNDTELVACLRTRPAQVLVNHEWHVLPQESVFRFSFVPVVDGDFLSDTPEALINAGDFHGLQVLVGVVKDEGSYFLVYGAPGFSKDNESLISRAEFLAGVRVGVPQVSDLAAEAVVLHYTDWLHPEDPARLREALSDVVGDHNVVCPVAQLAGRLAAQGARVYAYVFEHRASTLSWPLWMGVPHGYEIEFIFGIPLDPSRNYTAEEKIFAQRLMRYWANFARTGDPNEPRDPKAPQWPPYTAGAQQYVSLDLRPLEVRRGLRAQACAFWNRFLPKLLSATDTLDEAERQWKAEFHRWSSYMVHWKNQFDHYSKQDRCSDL
Text: (§1) Different test chemicals and substrate concentrations were utilized in the kinetic experiments. Lineweaver-Burk plots were employed to determine the kind of inhibition, and they were used to track how the inhibitor affected Km and Vmax by plotting the reciprocal reaction rate against the reciprocal substrate concentrations.
All substances were put through a little modified version of Ellman’s test to gauge the effectiveness of their ability to inhibit acetylcholinesterase (AChE). Released thiocholine reacts with chromogenic reagent 5,5-dithio-bis (2-nitrobenzoic) acid to produce a colorful product […]. At a concentration of 2.5 units/mL, the enzyme solutions were prepared. The assay volume was 100 μL, having 60 μL buffer and 10 μL test compound (0.1 mM, 10% DMSO), pursued by inserting enzyme 10 μL […]. The mixture was incubated for 10 min. 10 μL of the substrate and 10 μL of DTNB were added to the mixture.

MAO-A = target: T1, MAO-A (Homo sapiens, UniProt P21397); assay: Monoamine oxidase A inhibition assay (Amplex red fluorescence); details: for IC50: average ± SEM, triplicate
T1 sequence (P21397 1-527): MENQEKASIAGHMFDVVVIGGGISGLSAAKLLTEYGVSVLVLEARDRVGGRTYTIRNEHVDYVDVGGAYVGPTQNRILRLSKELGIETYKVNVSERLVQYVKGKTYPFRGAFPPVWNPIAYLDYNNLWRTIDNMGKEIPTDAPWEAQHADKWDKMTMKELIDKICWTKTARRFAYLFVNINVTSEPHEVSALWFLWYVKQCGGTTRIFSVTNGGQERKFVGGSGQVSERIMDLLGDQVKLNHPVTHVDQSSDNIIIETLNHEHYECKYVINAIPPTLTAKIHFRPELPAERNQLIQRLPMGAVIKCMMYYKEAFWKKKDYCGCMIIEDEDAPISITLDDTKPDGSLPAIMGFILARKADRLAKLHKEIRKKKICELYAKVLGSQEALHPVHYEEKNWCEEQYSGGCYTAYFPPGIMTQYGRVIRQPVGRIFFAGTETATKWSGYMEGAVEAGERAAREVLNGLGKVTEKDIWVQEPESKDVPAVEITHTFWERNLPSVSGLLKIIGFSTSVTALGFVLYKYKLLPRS
Procedure: as §1
(§2) According to the previously reported protocol, the synthesized compounds’ action on the monoamine oxidase (MAO-A and MAO-B) enzymes was tested. The enzyme was produced just 15 to 20 min before, at a cold room temperature. […] White 96-well plates were utilized for the test. The assay volume was 100 μL, having 60 μL buffer (pH 7.4) and 10 μL test compound (0.1 mM, 10% DMSO), followed by adding enzyme 10 μL (26 μg of protein for MAO-A and 5.0 μg for MAO-B). For MAO-A and MAO-B, the mixture was incubated for 20 and 15 min, respectively. The mixture was then given 10 μL of the substrate and 10 μL of newly prepared Amplex red. […] The non-linear curve fitting tool PRISM 5.0 (GraphPad, San Diego, CA, USA) was employed to compute IC50 values.

MAO-B = target: T2, MAO-B (Homo sapiens, UniProt P27338); assay: biochemical
T2 sequence (P27338 1-520): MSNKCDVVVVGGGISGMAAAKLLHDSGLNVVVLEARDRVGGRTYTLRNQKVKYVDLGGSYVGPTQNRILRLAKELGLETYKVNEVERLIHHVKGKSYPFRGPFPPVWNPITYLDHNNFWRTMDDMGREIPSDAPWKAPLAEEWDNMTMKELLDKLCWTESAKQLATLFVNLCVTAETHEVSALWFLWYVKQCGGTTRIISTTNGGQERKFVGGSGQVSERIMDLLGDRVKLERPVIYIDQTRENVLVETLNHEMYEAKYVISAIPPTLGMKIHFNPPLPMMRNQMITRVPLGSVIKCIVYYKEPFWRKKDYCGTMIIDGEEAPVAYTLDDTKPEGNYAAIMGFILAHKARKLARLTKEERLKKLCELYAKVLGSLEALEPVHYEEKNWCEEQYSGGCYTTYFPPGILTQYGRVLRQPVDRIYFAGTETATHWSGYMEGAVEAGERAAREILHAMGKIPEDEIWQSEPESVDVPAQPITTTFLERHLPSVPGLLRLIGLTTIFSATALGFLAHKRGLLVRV
Procedure: as §1, §2

[1] = Lineweaver-Burk plots, Vmax unaffected, Km increased

SMILES | IC50 (AChE) [µM] | type of inhibition of MAO-A (MAO-A; [1]) | IC50 (MAO-A) | IC50 (MAO-B) [µM] | type of inhibition of AChE (AChE; [1]) | type of inhibition of MAO-B (MAO-B; [1])
O=C1c2ccccc2C(=O)N1CSc1nnc(-c2cc(-c3ccccc3)nc3ccccc23)o1 [Compound 5a, 2-((5-(2-Phenylquinolin-4-yl)-1,3,4-oxadiazol-2-ylthio)methyl)isoindoline-1,3-dione] | 1.4 ± 0.45 | pure competitive type of inhibition | 0.91 ± 0.15 µM | 1.59 ± 1.66 |  | 
O=C1c2ccccc2C(=O)N1CCSc1nnc(-c2cc(-c3ccccc3)nc3ccccc23)o1 [Compound 5b, 2-(2-(5-(2-Phenylquinolin-4-yl)-1,3,4-oxadiazol-2-ylthio)ethyl)isoindoline-1,3-dione] | 2.55 ± 0.96 |  | 1.81 ± 0.38 µM | 2.61 ± 2.48 |  | 
O=C1c2ccccc2C(=O)N1CCCSc1nnc(-c2cc(-c3ccccc3)nc3ccccc23)o1 [Compound 5c, 2-(3-(5-(2-Phenylquinolin-4-yl)-1,3,4-oxadiazol-2-ylthio)propyl)isoindoline-1,3-dione] | 1.02 ± 0.65 |  | 3.31 ± 0.8 µM | 3.39 ± 0.42 | pure competitive type of inhibition | 
O=C1c2ccccc2C(=O)N1CCCCSc1nnc(-c2cc(-c3ccccc3)nc3ccccc23)o1 [Compound 5d, 2-(4-(5-(2-Phenylquinolin-4-yl)-1,3,4-oxadiazol-2-ylthio)butyl)isoindoline-1,3-dione] | 2.38 ± 0.92 |  | 3.18 ± 1.23 µM | 3.76 ± 1.04 |  | 
O=C1c2ccccc2C(=O)N1CCCCCSc1nnc(-c2cc(-c3ccccc3)nc3ccccc23)o1 [Compound 5e, 2-(5-(5-(2-Phenylquinolin-4-yl)-1,3,4-oxadiazol-2-ylthio)pentyl)isoindoline-1,3-dione] | 1.29 ± 0.75 |  | 4.14 ± 0.35 µM | 3.84 ± 0.91 |  | 
O=C1c2ccccc2C(=O)N1CCCCCCSc1nnc(-c2cc(-c3ccccc3)nc3ccccc23)o1 [Compound 5f, 2-(6-(5-(2-Phenylquinolin-4-yl)-1,3,4-oxadiazol-2-ylthio)hexyl)isoindoline-1,3-dione] | 3.32 ± 0.45 |  | 4.88 ± 1.75 µM | 0.84 ± 0.06 |  | pure competitive type of inhibition
FC(F)(F)c1ccc(CSc2nnc(-c3cc(-c4ccccc4)nc4ccccc34)o2)cc1 [Compound 6a, 4-(5-(4-(Trifluoromethyl)benzylthio)-1,3,4-oxadiazol-2-yl)-2-phenylquinoline] | 3.23 ± 0.95 |  | 1.02 µM and 1.51 µM | 3.71 ± 2.88 |  | 
FC(F)(F)c1cccc(CSc2nnc(-c3cc(-c4ccccc4)nc4ccccc34)o2)c1 [Compound 6b, 4-(5-(3-(Trifluoromethyl)benzylthio)-1,3,4-oxadiazol-2-yl)-2-phenylquinoline] | 3.54 ± 1.05 |  | 1.51 µM and 1.02 µM | 2.71 ± 0.88 |  | 
FC(F)(F)c1ccccc1CSc1nnc(-c2cc(-c3ccccc3)nc3ccccc23)o1 [Compound 6c, 4-(5-(2-(Trifluoromethyl)benzylthio)-1,3,4-oxadiazol-2-yl)-2-phenylquinoline] | 4.38 ± 1.45 |  | 6.81 ± 2.65 µM | 5.59 ± 3.22 |  | 
c1ccc(CSc2nnc(-c3cc(-c4ccccc4)nc4ccccc34)o2)cc1 [Compound 6d, 4-(5-(Benzylthio)-1,3,4-oxadiazol-2-yl)-2-phenylquinoline] | 4.98 ± 1.85 |  | 4.16 ± 1.71 µM | 2.9 ± 1.85 |  | 
